Assays:
human TRPA1 [1] = biological target: T1, human TRPA1 (Homo sapiens (Human), UniProt O75762); test: Measurement of TRPA1 antagonist activity (1): intracellular calcium increase; type: cell-based; conditions: 293T cells transfected with human TRPA1 expression plasmid; allylisothiocyanate 20 μM stimulation; intracellular calcium fluorescence; read-out: hTRPA1 IC50
How it was run: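 Calcium-flux readout of TRPA1 block: compound given 10 min before 20 μM (final) allylisothiocyanate, fluorescence tracked 5 min. Cells were 293T transiently expressing human TRPA1, dye-loaded 1 hr in HBSS, 20 mM HEPES, pH 7.2. Inhibition scaled between agonist-only and buffer-only responses; IC50 by sigmoid fitting.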

human TRPA1 [2] = biological target: T1, human TRPA1; test: Measurement of TRPA1 antagonist activity (2): as (1), different lot of human TRPA1 expression plasmid; type: cell-based; conditions: 293T cells transfected with human TRPA1, allylisothiocyanate 20 μM stimulation, calcium fluorescence, read-out: hTRPA1 IC50
How it was run: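 HEK293T cells transiently transfected with human TRPA1 plasmid (different lot), loaded with Calcium4 dye in HBSS/20 mM HEPES pH 7.2. Test compound preincubated 10 min, then allylisothiocyanate added at 20 μM final and fluorescence change read for 5 min. IC50 from sigmoid fit of inhibition relative to AITC-alone and buffer controls.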

T1 sequence (O75762 whole entry): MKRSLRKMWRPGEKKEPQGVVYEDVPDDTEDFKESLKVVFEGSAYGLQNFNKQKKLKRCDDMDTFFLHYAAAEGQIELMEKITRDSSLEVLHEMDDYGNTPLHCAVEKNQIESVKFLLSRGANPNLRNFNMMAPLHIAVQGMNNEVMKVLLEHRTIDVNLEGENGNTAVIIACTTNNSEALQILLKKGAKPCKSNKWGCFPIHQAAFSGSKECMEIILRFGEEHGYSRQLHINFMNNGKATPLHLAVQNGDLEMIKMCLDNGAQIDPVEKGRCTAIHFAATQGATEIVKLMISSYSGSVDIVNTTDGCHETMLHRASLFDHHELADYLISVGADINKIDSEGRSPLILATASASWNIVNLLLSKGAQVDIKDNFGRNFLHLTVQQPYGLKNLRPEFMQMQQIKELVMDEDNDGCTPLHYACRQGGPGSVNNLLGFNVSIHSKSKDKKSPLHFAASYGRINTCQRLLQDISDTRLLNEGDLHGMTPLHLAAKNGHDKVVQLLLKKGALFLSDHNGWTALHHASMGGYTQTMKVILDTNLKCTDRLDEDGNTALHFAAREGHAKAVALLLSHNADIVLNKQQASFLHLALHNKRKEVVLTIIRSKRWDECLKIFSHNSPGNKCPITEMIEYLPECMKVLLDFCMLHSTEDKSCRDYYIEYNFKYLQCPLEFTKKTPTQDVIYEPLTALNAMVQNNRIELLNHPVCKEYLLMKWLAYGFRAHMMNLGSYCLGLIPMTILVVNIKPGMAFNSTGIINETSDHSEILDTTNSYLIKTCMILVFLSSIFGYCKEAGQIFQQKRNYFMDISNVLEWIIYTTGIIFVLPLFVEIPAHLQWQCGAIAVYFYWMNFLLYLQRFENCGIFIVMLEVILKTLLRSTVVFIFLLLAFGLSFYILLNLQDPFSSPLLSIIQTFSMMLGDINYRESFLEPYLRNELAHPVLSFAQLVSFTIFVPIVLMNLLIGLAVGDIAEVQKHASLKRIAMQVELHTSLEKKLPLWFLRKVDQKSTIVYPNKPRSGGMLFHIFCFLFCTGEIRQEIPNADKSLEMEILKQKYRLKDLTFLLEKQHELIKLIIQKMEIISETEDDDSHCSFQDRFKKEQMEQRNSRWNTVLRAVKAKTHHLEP

Row | IC50 (human TRPA1 [1]) [nM] | IC50 (human TRPA1 [2]) [nM] | SMILES
1 | 26 | 52 | O=C(NCc1cncc(-c2ccc(C(F)(F)F)cn2)c1)[C@@H]1CCCN1S(=O)(=O)c1cc2ccccc2o1 [Example 87, (2S)-1-(benzofuran-2-ylsulfonyl)-N-[[5-[5-(trifluoromethyl)-2-pyridyl]-3-pyridyl]methyl]pyrrolidine-2-carboxamide]
2 | 1.3 | 4.1 | O=C(NCc1cc(-c2ccc(C(F)(F)F)cn2)ccn1)[C@@H]1CCCN1S(=O)(=O)c1cc2ccccc2o1 [Example 179, (2S)-1-(benzofuran-2-ylsulfonyl)-N-[[4-[5-(trifluoromethyl)-2-pyridyl]-2-pyridyl]methyl]pyrrolidine-2-carboxamide]
3 | 12 | 35 | C[C@H](NS(=O)(=O)c1cc2cc(F)ccc2o1)C(=O)NCc1cc(-c2ccc(C(F)(F)F)nc2)ncn1 [Example 191, (2S)-2-[(5-fluorobenzofuran-2-yl)sulfonylamino]-N-[[6-[6-(trifluoromethyl)-3-pyridyl]pyrimidin-4-yl]methyl]propanamide]
4 | – | 170 | O=C(NCc1cc(-c2ccc(C(F)(F)F)cn2)ccn1)C(CF)NS(=O)(=O)c1cc2cc(F)ccc2o1 (stereo not shown) [Example 427, 3-fluoro-2-[(5-fluorobenzofuran-2-yl)sulfonylamino]-N-[[4-[5-(trifluoromethyl)-2-pyridyl]-2-pyridyl]methyl]propanamide]

— patent US10626112B2, “Heterocyclic sulfonamide derivative and medicine comprising same” (EA PHARMA CO., LTD., priority 2014, dated 2020)
